From patent US20220381657A1, “METHOD FOR PREPARING BIOLOGICAL MATERIAL HAVING EXCELLENT LIGHT-TRANSMITTING PROPERTY” (RIKEN, priority 2016, published 2022)
“Also recorded” adds a separate entry of the source. Where two headings read alike, the source gives them in different places.

Columns and labels:
mouse spleen = test: Decoloring of mouse spleen (OD420 of supernatant, transmissive image); conditions: 10 wt % solution, 37° C. overnight
EGFP = EGFP (Aequorea victoria, UniProt P42212, F64L/H231L/S65T); type: biochemical; conditions: for 2nd quenching assay EGFP fluorescence: Table 3; for retention of fluorescence of a fluorescent protein: stated in the description
Description: (FIG. 7). […] A mouse hemisphere was treated with use of each 10 wt % chemical solution at 37° C. for 3 days, and was washed with PBS. Subsequently, the mouse hemisphere was subjected to refractive index adjustment with CUBIC-2A.

bovine coagulated blood = test: Decoloring screening: heme eluted from bovine coagulated blood (OD420-OD700); conditions: decolorization; for 700 nm calibrated 420 nm Average: OD420 calibrated by OD700; for integrated value 500-700 nm Average: integrated absorbance 500-700 nm
[1] = Refractive index of high-concentration aqueous solution; type: physicochemical
From the text: (§1) The refractive index of an aqueous solution is commonly known to increase in a solute concentration-dependent manner, and the refractive index of a reagent per unit weight of the reagent varies among individual reagents. Accordingly, two properties are required in order to prepare a high refractive index aqueous solution: (1) an extremely high water-solubility and (2) a […] which allows achieving a high refractive index in a low-concentration aqueous solution.

[2] = for 400 nm: OD at 400 nm of the chemical
[3] = test system: fixed brain tissue suspension; test: 1st delipidation assay: solubilization of fixed brain tissue suspension, turbidity at 600 nm; set-up: species or system mice; conditions: Table 1; 10 wt % chemical, fixed mouse brain suspension, 37° C. overnight; PBS = 1.000
Description: Specifically, brains taken out of mice were sheared with a utility knife and then were disrupted by ultrasonication. To each of the resultant suspensions, an equal volume of 8% PFA solution was added to perform fixation at 4° C. for 1 hour. The resultant mixture was centrifuged to remove the supernatant, and the fixed brain tissue was washed with PBS for 3 times. PBS was added so as to obtain 2 mL of a fixed brain tissue suspension per brain. The fixed brain tissue suspension was diluted by 3.5 folds. To 20 μL of the resultant suspension, 130 μL of each 10 wt % chemical was added and was shaken at 37° C. overnight. Thus obtained mixed solutions were subjected to absorbance (turbidity) measurement at 600 nm. It is expected that a chemical solution which reduces the turbidity of a fixed brain suspension allows reducing light scattering by solubilizing lipids, which act as a scattering factor, in the brain tissue.

mouse hemisphere = test: Delipidation and clearing of mouse hemisphere (transmittance, phospholipid and cholesterol content)
Description: Subsequently, the delipidation efficiency of the series of compounds in mammalian tissue was examined. […] The transmittance of the brain tissue was measured, and then the brain tissue was washed with PBS and was disrupted. […] It was thus shown that the above basic chemicals and some neutral chemicals were better than the detergents from the viewpoint of permeability with respect to tissue. […] Subsequently, the mouse hemisphere was subjected to refractive index adjustment with CUBIC-2A. […] Accordingly, #0414 (N-butyldiethanolamine) was selected as a highly-efficient delipidation chemical.

[4] = 1st RI evaluation assay: refractive index at 589 nm of 10 wt % aqueous solution; type: physicochemical; conditions: Table 3
From the text: as §1

mouse brain = test: Swelling and clearing of delipidated mouse brain; conditions: CUBIC-1 delipidated brain, shaken 3 days
[5] = Table 3, chemical conc. 70 wt %

Compound | 2nd quenching assay EGFP fluorescence (EGFP) | retention of fluorescence of a fluorescent protein (EGFP) | 700 nm calibrated 420 nm Average (bovine coagulated blood) | integrated value 500-700 nm Average (bovine coagulated blood) | RI [1, 5] | Fluorescence quench Average (Serius; relative fluorescence) | 400 nm [2] | OD400 ([2]; Table 3) | pH (Table 3) | pH ([…]) | also measured
Cn1ccnc1 [1-methylimidazole] | – | – | – | – | – | – | – | – | – | – | mouse spleen decoloring activity (mouse spleen): equivalent decoloring activity
OCCNCc1ccccc1 [#0389, N-Benzyl- ethanolamine] | quench free | allowing retention of fluorescence of a fluorescent protein | 2.73 | 2.42 | 1.4814 | 0.57 | 0.063 | 0.063 | 10.9 | 10.9 | –
CCCCN(CCO)CCO [#0414, N-Butyldiethanolamine] | – | – | 1.30 | 1.45 | – | 0.70 | 0.05 | – | – | 12.7 | 1st delipidation assay Relative OD600 [3]: 0.261; organ transparency (mouse hemisphere; #0414 versus #0389, basic chemicals): superiority; OD400 ([2]; Table 1): 0.05; pH (Table 1): 12.7
CNC(=S)NC [#0637, 1,3-Dimethyl-thiourea] | – | – | – | – | – | – | – | 0.049 | 6.8 | – | 1st RI evaluation assay RI of 10% chemical [4]: 1.3555
Cc1cc(=O)n(-c2ccccc2)n1C [#0640, 2,3-Dimethyl-1-phenyl-5-pyrazolone] | quench free | allowing retention of fluorescence of a fluorescent protein | 1.22 | 0.93 | – | – | – | – | – | – | RI [1]: 1.4966; Fluorescence quench Average (Serius): 0.84
CN(C)C(=O)c1ccccc1 [#0788, N,N- Dimethyl- benzamide] | quench free | allowing retention of fluorescence of a fluorescent protein | 1.26 | 1.08 | 1.4833 | 0.76 | 0.049 | 0.049 | 10.7 | 10.7 | –
CCn1ccnc1 [#0938, 1-ethylimidazole] | – | allows fluorescence of a fluorescent protein to be retained | 6.19 | 3.41 | – | 0.80 | 0.053 | – | – | 12.1 | mouse spleen decoloring activity (mouse spleen): highest
CCCCC(O)CO (stereo not shown) [#1051, 1,2-Hexanediol] | – | – | – | – | – | – | – | – | – | – | 1st delipidation assay Relative OD600 [3]: 0.300; degree of delipidation and clearing of mouse hemisphere (mouse hemisphere; 10 wt % chemical, 37° C., 3 days, then CUBIC-2A, compared with detergents #1035, #1455, #1460, Triton X-100): higher degrees of delipidation and clearing; OD400 ([2]; Table 1): 0.048; pH (Table 1): 9.3
CNC(=O)c1cccnc1 [#1283, N-Methyl- nicotinamide] | quench free | allowing retention of fluorescence of a fluorescent protein; also recorded: allows fluorescence of a fluorescent protein to be retained | 2.98 | 2.81 | 1.4902 | 0.71 | 0.063 | 0.063 | 10.7 | 10.7 | –
c1c[nH]cn1 [#1352, imidazole] | – | – | – | – | – | – | – | – | – | – | swelling of delipidated mouse brain (mouse brain): high-degree of swelling
